Reference: PubChem BioAssay (NCI)
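Interpolation was linear, between the two tested concentrations surrounding the appropriate level; five concentrations were tested over 48 hours in 96-well plates. At the GI50, growth is halved. TGI denotes the concentration required for complete inhibition of growth.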

Tests used:
Assay in all cases: DTP human tumour cell line panel, 48 h
ACHN renal = test system: ACHN renal
MCF7 breast = test system: MCF7 breast
RXF 393 renal = test system: RXF 393 renal
A549 NSCLC = test system: A549 NSCLC
COLO 205 colon = test system: COLO 205 colon
SK-MEL-2 melanoma = test system: SK-MEL-2 melanoma
SK-MEL-5 melanoma = test system: SK-MEL-5 melanoma
SF-268 CNS = test system: SF-268 CNS
LOX IMVI melanoma = test system: LOX IMVI melanoma
HCT-15 colon = test system: HCT-15 colon
IGROV1 ovarian = test system: IGROV1 ovarian
M14 melanoma = test system: M14 melanoma
KM12 colon = test system: KM12 colon
MDA-MB-435 = test system: MDA-MB-435
U251 CNS = test system: U251 CNS
SNB-19 CNS = test system: SNB-19 CNS
UO-31 renal = test system: UO-31 renal
NCI-H23 lung = test system: NCI-H23 lung
SK-OV-3 ovarian = test system: SK-OV-3 ovarian
DU-145 prostate = test system: DU-145 prostate
A498 renal = test system: A498 renal
OVCAR-5 ovarian = test system: OVCAR-5 ovarian
786-0 renal = test system: 786-0 renal
HCT-116 colon = test system: HCT-116 colon
OVCAR-4 ovarian = test system: OVCAR-4 ovarian
HCC-2998 colon = test system: HCC-2998 colon
K-562 leukemia = test system: K-562 leukemia
UACC-257 melanoma = test system: UACC-257 melanoma
TK-10 renal = test system: TK-10 renal
SF-295 CNS = test system: SF-295 CNS
HOP-62 NSCLC = test system: HOP-62 NSCLC
SF-539 CNS = test system: SF-539 CNS
UACC-62 melanoma = test system: UACC-62 melanoma
SW-620 colon = test system: SW-620 colon
EKVX NSCLC = test system: EKVX NSCLC
CAKI-1 renal = test system: CAKI-1 renal
NCI/ADR-RES ovarian = test system: NCI/ADR-RES ovarian
BT-549 breast = test system: BT-549 breast
HS 578T breast = test system: HS 578T breast
SR leukemia = test system: SR leukemia
SK-MEL-28 melanoma = test system: SK-MEL-28 melanoma
HT29 colon = test system: HT29 colon
NCI-H460 lung = test system: NCI-H460 lung
NCI-H522 lung = test system: NCI-H522 lung
OVCAR-8 ovarian = test system: OVCAR-8 ovarian
SNB-75 CNS = test system: SNB-75 CNS
MOLT-4 leukemia = test system: MOLT-4 leukemia
MALME-3M melanoma = test system: MALME-3M melanoma

In the case of `CCN(CC)c1ccc2c(c1)Oc1nc(N)c(C#N)c(N)c1C2Sc1ccc(F)cc1` (stereo unspecified), the GI50 (ACHN renal) is reported as 1500 nM, the TGI (ACHN renal) is reported as 2820 nM and the GI50 (MCF7 breast) is reported as 1000 nM. The TGI (MCF7 breast) was 2840 nM, the GI50 (RXF 393 renal) was 1710 nM and the TGI (RXF 393 renal) was 3170 nM. The GI50 (A549 NSCLC) was 1790 nM, the TGI (A549 NSCLC) was 3340 nM and the GI50 (COLO 205 colon) was 1220 nM. For the same compound, the TGI (COLO 205 colon) was 2670 nM, the GI50 (SK-MEL-2 melanoma) was 1690 nM and the TGI (SK-MEL-2 melanoma) was 3100 nM. For the same compound, the GI50 (SK-MEL-5 melanoma) was 1760 nM, the TGI (SK-MEL-5 melanoma) was 3170 nM and the GI50 (SF-268 CNS) was 1540 nM. It also gave a TGI (SF-268 CNS) of 2990 nM, a GI50 (LOX IMVI melanoma) of 433 nM and a TGI (LOX IMVI melanoma) of 1530 nM. It also gave a GI50 (HCT-15 colon) of 984 nM, a TGI (HCT-15 colon) of 2450 nM and a GI50 (IGROV1 ovarian) of 1050 nM. The TGI (IGROV1 ovarian) was 2380 nM, the GI50 (M14 melanoma) was 1490 nM and the TGI (M14 melanoma) was 3010 nM. It also gave a GI50 (KM12 colon) of 1210 nM, a TGI (KM12 colon) of 2490 nM and a GI50 (MDA-MB-435) of 1330 nM. It also gave a TGI (MDA-MB-435) of 2730 nM, a GI50 (U251 CNS) of 1230 nM and a TGI (U251 CNS) of 2560 nM. For the same compound, the GI50 (SNB-19 CNS) was 1410 nM, the TGI (SNB-19 CNS) was 2740 nM and the GI50 (UO-31 renal) was 1120 nM. The TGI (UO-31 renal) was 2330 nM, the GI50 (NCI-H23 lung) was 1370 nM and the TGI (NCI-H23 lung) was 2900 nM. For the same compound, the GI50 (SK-OV-3 ovarian) was 2040 nM, the TGI (SK-OV-3 ovarian) was 3630 nM and the GI50 (DU-145 prostate) was 1650 nM. For the same compound, the TGI (DU-145 prostate) was 3010 nM, the GI50 (A498 renal) was 1930 nM and the TGI (A498 renal) was 3910 nM. For the same compound, the GI50 (OVCAR-5 ovarian) was 1380 nM, the TGI (OVCAR-5 ovarian) was 2780 nM and the GI50 (786-0 renal) was 1560 nM. It also gave a TGI (786-0 renal) of 3020 nM, a GI50 (HCT-116 colon) of 1140 nM and a TGI (HCT-116 colon) of 2660 nM. The GI50 (OVCAR-4 ovarian) was 1750 nM, the TGI (OVCAR-4 ovarian) was 3180 nM and the GI50 (HCC-2998 colon) was 1730 nM. The TGI (HCC-2998 colon) was 3300 nM, the GI50 (K-562 leukemia) was 308 nM and the TGI (K-562 leukemia) was greater than 100000 nM. It also gave a GI50 (UACC-257 melanoma) of 1860 nM, a TGI (UACC-257 melanoma) of 3330 nM and a GI50 (TK-10 renal) of 2690 nM. The TGI (TK-10 renal) was 4210 nM, the GI50 (SF-295 CNS) was 1700 nM and the TGI (SF-295 CNS) was 3160 nM. The GI50 (HOP-62 NSCLC) was 1830 nM, the TGI (HOP-62 NSCLC) was 3420 nM and the GI50 (SF-539 CNS) was 1330 nM. For the same compound, the TGI (SF-539 CNS) was 2620 nM, the GI50 (UACC-62 melanoma) was 1630 nM and the TGI (UACC-62 melanoma) was 3100 nM. It also gave a GI50 (SW-620 colon) of 1080 nM, a TGI (SW-620 colon) of 2410 nM and a GI50 (EKVX NSCLC) of 661 nM. The TGI (EKVX NSCLC) was 2060 nM, the GI50 (CAKI-1 renal) was 1550 nM and the TGI (CAKI-1 renal) was 2910 nM. For the same compound, the GI50 (NCI/ADR-RES ovarian) was 2280 nM, the TGI (NCI/ADR-RES ovarian) was 5880 nM and the GI50 (BT-549 breast) was 1070 nM. The TGI (BT-549 breast) was 2310 nM, the GI50 (HS 578T breast) was 1610 nM and the TGI (HS 578T breast) was 4610 nM. It also gave a GI50 (SR leukemia) of 334 nM, a TGI (SR leukemia) greater than 100000 nM and a GI50 (SK-MEL-28 melanoma) of 1520 nM. For the same compound, the TGI (SK-MEL-28 melanoma) was 2890 nM, the GI50 (HT29 colon) was 1530 nM and the TGI (HT29 colon) was 3320 nM. It also gave a GI50 (NCI-H460 lung) of 1280 nM, a TGI (NCI-H460 lung) of 2750 nM and a GI50 (NCI-H522 lung) of 1800 nM. For the same compound, the TGI (NCI-H522 lung) was 3310 nM, the GI50 (OVCAR-8 ovarian) was 1600 nM and the TGI (OVCAR-8 ovarian) was 3020 nM. It also gave a GI50 (SNB-75 CNS) of 1490 nM, a TGI (SNB-75 CNS) of 2820 nM and a GI50 (MOLT-4 leukemia) of 315 nM. For the same compound, the TGI (MOLT-4 leukemia) was greater than 100000 nM, the GI50 (MALME-3M melanoma) was 1670 nM and the TGI (MALME-3M melanoma) was 3090 nM.
